Results on six molecules are retold here after ChEMBL document CHEMBL6092194, “Development of membrane-targeting chalcone derivatives as antibacterial agents against multidrug-resistant bacteria” (Eur J Med Chem, 2024).

For data set [1], the system named is Staphylococcus epidermidis. The data set can be described thus: Antibacterial activity against erythromycin-susceptible Staphylococcus epidermidis ATCC12228 by broth microdilution assay. The data set is classed as functional. On the technique in general: Broth dilution looks for growth in wells or tubes with falling amounts of substance.
The nature of data set [2]: Selectivity index, ratio of HC50 for hemolytic activity in red blood cells (unknown origin) to MIC for antibacterial activity against penicillin-susceptible Escherichia coli ATCC25922. The data set is classed as toxicity, cell-based, RBC. The following applies: read-out: Selectivity Index.
For a further data set, the system named is Acinetobacter baumannii. In words: Antibacterial activity against Acinetobacter baumannii ATCC19606 by broth microdilution assay. The data set is classed as functional.
A short description of data set [3]: Selectivity index, ratio of HC50 for hemolytic activity in red blood cells (unknown origin) to MIC for antibacterial activity against penicillin-resistant Staphylococcus aureus ATCC43300. The data set is classed as toxicity, cell-based, RBC. The following applies: read-out: Selectivity Index.
The subject of data set [4] is Staphylococcus aureus. The data set can be described thus: Antibacterial activity against erythromycin susceptible Staphylococcus aureus ATCC25923 by broth microdilution assay. The data set is classed as functional.
The test system of data set [5] is Staphylococcus aureus. The data set can be described thus: Antibacterial activity against penicillin-resistant Staphylococcus aureus ATCC43300 by broth microdilution assay. The data set is classed as functional.
The next data set relates to Klebsiella pneumoniae. The data set can be described thus: Antibacterial activity against Klebsiella pneumoniae ATCC10031 by broth microdilution assay. The data set is classed as functional.
Data set [6] concerns Staphylococcus aureus. The data set can be described thus: Antibacterial activity against penicillin-resistant Staphylococcus aureus ATCC31007 by broth microdilution assay. The data set is classed as functional.
For another data set, the system named is Bacillus subtilis. In words: Antibacterial activity against penicillin-susceptible Bacillus subtilis ATCC9372 by broth microdilution assay. The data set is classed as functional.
The next data set has as its system Pseudomonas aeruginosa. In words: Antibacterial activity against penicillin-susceptible Pseudomonas aeruginosa ATCC27853 by broth microdilution method. The data set is classed as functional.
The test system of the next data set is Escherichia coli. In words: Antibacterial activity against penicillin-susceptible Escherichia coli ATCC25922 by broth microdilution method. The data set is classed as functional.
The test system of a further data set is Enterococcus faecalis. The data set can be described thus: Antibacterial activity against vancomycin susceptible Enterococcus faecalis ATCC29212 by broth microdilution assay. The data set is classed as functional.
The nature of data set [7]: Hemolytic activity in red blood cells (unknown origin). The data set is classed as toxicity, cell-based, Erythrocyte.
Data set [8] concerns Staphylococcus aureus. In words: Drug resistance, ratio of MIC for Staphylococcus aureus ATCC43300 measured after 17 passages to MIC for Staphylococcus aureus ATCC43300 measured after first exposure. The data set is classed as functional.
Data set [9] concerns Staphylococcus aureus. In words: Antibacterial activity against Staphylococcus aureus ATCC43300 infected in sepsis mouse model assessed as reduction in liver damage at 5 mg/kg pre-infected with bacteria for 1 hrs followed by compound administration at 12 hrs interval for 2 days by H and E staining based analysis. The data set is classed as functional, organism-based. The following applies: time 2.0 day.

For data set [10], the system named is Staphylococcus aureus. In words: Antibacterial activity against Staphylococcus aureus ATCC43300 infected in sepsis mouse model assessed as reduction in liver inflammation at 5 mg/kg pre-infected with bacteria for 1 hrs followed by compound administration at 12 hrs interval for 2 days by H and E staining based analysis. The data set is classed as functional, organism-based. The following applies: time 2.0 day.

Data set [11] concerns Staphylococcus aureus. The data set can be described thus: Antibacterial activity against Staphylococcus aureus ATCC43300 infected in sepsis mouse model assessed as reduction in kidney damage at 5 mg/kg pre-infected with bacteria for 1 hrs followed by compound administration at 12 hrs interval for 2 days by H and E staining based analysis. The data set is classed as functional, organism-based. The following applies: time 2.0 day.

Data set [12] has as its system Staphylococcus aureus. The data set can be described thus: Antibacterial activity against Staphylococcus aureus ATCC43300 infected in sepsis mouse model assessed as reduction in spleen damage at 5 mg/kg pre-infected with bacteria for 1 hrs followed by compound administration at 12 hrs interval for 2 days by H and E staining based analysis. The data set is classed as functional, organism-based. The following applies: time 2.0 day.

Data set [13] has as its system Staphylococcus aureus. The data set can be described thus: Antibacterial activity against Staphylococcus aureus ATCC43300 infected in sepsis mouse model assessed as reduction in kidney inflammation at 5 mg/kg pre-infected with bacteria for 1 hrs followed by compound administration at 12 hrs interval for 2 days by H and E staining based analysis. The data set is classed as functional, organism-based. The following applies: time 2.0 day.

The test system of data set [14] is Staphylococcus aureus. The data set can be described thus: Antibacterial activity against Staphylococcus aureus ATCC43300 infected in sepsis mouse model assessed as reduction in spleen inflammation at 5 mg/kg pre-infected with bacteria for 1 hrs followed by compound administration at 12 hrs interval for 2 days by H and E staining based analysis. The data set is classed as functional, organism-based. The following applies: time 2.0 day.

Converted amounts (≈) assume the structure as drawn. The source made the active and inactive calls. Where only a bound is given, the exact number is not on record here.

With `CCCCCC[N+](C)(C)CCCOc1ccc(/C=C/C(=O)c2ccc(OCCC[N+](C)(C)CCCCCC)cc2)cc1.[Br-].[Br-]`, the minimal inhibitory concentration (MIC) in data set [1] stood at 0.5 µg/mL; against Acinetobacter baumannii, 16 µg/mL; against Staphylococcus aureus [4], 1 µg/mL; in the data set on Staphylococcus aureus [5] it was 1 µg/mL; in the data set with Klebsiella pneumoniae it was 4 µg/mL; in the data set on Staphylococcus aureus [6], 1 µg/mL. For the same molecule, the minimal inhibitory concentration (MIC) with Bacillus subtilis was found to be 0.5 µg/mL; against Pseudomonas aeruginosa, 32 µg/mL; against Escherichia coli it was 4 µg/mL; against Enterococcus faecalis, 1 µg/mL. The selectivity ratio in [2] was found to be 283; in [3] it was 1130. In [7], this molecule returned an HC50 of 1130 µg/mL.

As to `CCn1cc(C(=O)O)c(=O)c2cc(F)c(N3CCNCC3)cc21` [NORFLOXACIN], the Ratio with Staphylococcus aureus [8] was 256.

For the molecule `CCCCCCCCCCCCCC[N+](C)(C)CCCOc1ccc(C(=O)/C=C/c2ccccc2)cc1.[Br-]`, the MIC was 16 µg/mL in data set [1]; 128 µg/mL in the data set with Acinetobacter baumannii; 8 µg/mL in the data set on Staphylococcus aureus [4]; 32 µg/mL against Staphylococcus aureus [5]; 128 µg/mL in the data set with Klebsiella pneumoniae; 64 µg/mL in the data set with Staphylococcus aureus [6]. The MIC against Bacillus subtilis was 32 µg/mL; against Pseudomonas aeruginosa, greater than 128 µg/mL; against Escherichia coli, greater than 128 µg/mL; against Enterococcus faecalis it was 32 µg/mL. In addition, the selectivity ratio in [3] was 9.8. In data set [7], this molecule had a concentration for 50% haemolysis (HC50) of 39 µg/mL.

In the case of `CCCC[N+](C)(C)CCCOc1ccc(/C=C/C(=O)c2ccc(OCCC[N+](C)(C)CCCC)cc2)cc1.[Br-].[Br-]`, the MIC in data set [1] was 2 µg/mL; against Acinetobacter baumannii, greater than 128 µg/mL; in the data set on Staphylococcus aureus [4], 2 µg/mL; against Staphylococcus aureus [5] it was 8 µg/mL; against Klebsiella pneumoniae, 128 µg/mL; against Staphylococcus aureus [6] it was 2 µg/mL. For the same molecule, the MIC in the data set with Bacillus subtilis was 8 µg/mL; in the data set with Pseudomonas aeruginosa, greater than 128 µg/mL; in the data set with Escherichia coli, 128 µg/mL; against Enterococcus faecalis, 4 µg/mL. Also, the selectivity ratio in [3] was determined as 73.8. In data set [7], this molecule yielded an HC50 of 590 µg/mL.

Take `CCCCCC[N+](C)(C)CCCCCCCOc1ccc(C(=O)/C=C/c2ccccc2)cc1.[Br-]`: the minimum inhibitory concentration (MIC) is 2 µg/mL in [1]; 16 µg/mL in the data set with Acinetobacter baumannii; 2 µg/mL in the data set on Staphylococcus aureus [4]; 4 µg/mL with Staphylococcus aureus [5]; 16 µg/mL with Klebsiella pneumoniae; 4 µg/mL in the data set with Staphylococcus aureus [6]. In addition, the MIC was 2 µg/mL against Bacillus subtilis, greater than 128 µg/mL with Pseudomonas aeruginosa, greater than 128 µg/mL in the data set with Escherichia coli and 4 µg/mL with Enterococcus faecalis. Further, the selectivity ratio in data set [3] was determined as 15.4. The same molecule yielded a concentration for 50% haemolysis (HC50) in data set [7] of 61.6 µg/mL.

On to `CN[C@H](CC(C)C)C(=O)N[C@H]1C(=O)N[C@@H](CC(N)=O)C(=O)N[C@H]2C(=O)N[C@H]3C(=O)N[C@H](C(=O)N[C@H](C(=O)O)c4cc(O)cc(O)c4-c4cc3ccc4O)[C@H](O)c3ccc(c(Cl)c3)Oc3cc2cc(c3O[C@@H]2O[C@H](CO)[C@@H](O)[C@H](O)[C@H]2O[C@H]2C[C@](C)(N)[C@H](O)[C@H](C)O2)Oc2ccc(cc2Cl)[C@H]1O` [VANCOMYCIN], for which the result with Staphylococcus aureus [9], in the data set on Staphylococcus aureus [10], in the data set on Staphylococcus aureus [11], in the data set with Staphylococcus aureus [12], in the data set with Staphylococcus aureus [13] and in the data set with Staphylococcus aureus [14] was Active. Besides, the MIC in the data set with Acinetobacter baumannii was 16 µg/mL (≈ 11 µM); against Klebsiella pneumoniae it was 128 µg/mL (≈ 88.3 µM); in the data set with Bacillus subtilis, 0.5 µg/mL (≈ 0.345 µM); against Pseudomonas aeruginosa it was greater than 128 µg/mL; against Escherichia coli it was 128 µg/mL (≈ 88.3 µM); in the data set on Enterococcus faecalis it was 2 µg/mL (≈ 1.38 µM).

In general, MIC refers to the smallest concentration in the dilution series that meets the test's criterion for growth inhibition. Lower therefore signals a more susceptible organism. For orientation: HC50 means the concentration that lyses half of the red blood cells. Read a low HC50 as stronger haemolysis.
